In brackets after ≈: the same amount, converted by molar mass. Like-named read-outs stand apart in the source and are kept apart here.
What was measured:
SNP cells [1] = assay: Photodynamic cytotoxicity in SNP cells (Cell Counting Kit-8); format: cell-based, canine; conditions: for Cell viability compared with 0 J/cm^2 of light: p < 0.01; for IC50: Canis lupus familiaris, light or radiation study, 24 h, 24 h incubation, 650-nm laser 10 mW/cm^2, viability 24 h after PDT, read-out: IC50 against SNP cells
Procedure: We seeded 1 × 10^4 SNP cells into each well of 96-well plates (Corning Inc., New York, NY, USA) followed by overnight incubation. Cells were then incubated with various concentrations of G-Ce6 for 24 h at 37 °C. After washing with fresh media, the cells were irradiated with 650-nm light emitted by a semiconductor laser (Osada Electric Co., Ltd., Tokyo, Japan), using an optical fiber with a micro-lens delivery attachment (Pioneer Optics, Inc., Windsor Lock, CT, USA). PDT was performed at 10 mW/cm^2 in cells exposed to six concentrations of NPe6 and G-Ce6 (0, 0.064, 0.32, 1.6, 8.0, or 40.0 μg/mL) using four light doses (0, 1, 5, or 15 J/cm^2). The cells were then incubated for 24 h in the dark prior to examining cell viability using the Cell Counting Kit-8 (Dojindo, Kumamoto, Japan), according to the manufacturer’s instructions.

SNP cells [2] = assay: Reactive oxygen species assay (Muse Oxidative Stress kit); format: cell-based, canine; conditions: 8 μg/mL, 4 h after PDT
Procedure: SNP cells were seeded at a density of 5 × 10^4 cells/well in 35-mm petri dishes containing 2 mL culture medium. Following 24 h of incubation, the cells were divided into the following groups: control (no treatment); laser (irradiated with a light dose of 15 J/cm^2); G-Ce6 (treated with 8 μg/mL G-Ce6); and PDT (treated with 8 μg/mL G-Ce6, and then irradiated with a light dose of 1, 5, or 15 J/cm^2).
Reactive oxygen species (ROS) generation was assessed 4 h after laser irradiation using the Muse Oxidative Stress kit (EMD Millipore Co.), according to the manufacturer’s protocols; this kit determines the percentage of cells that are negative (healthy cells) and positive for ROS (cells containing ROS).
Single-cell suspensions were then loaded onto the Muse Cell Analyzer (EMD Millipore Co.).

With CCC1=C(C)c2cc3[nH]c(cc4nc(c(CC(=O)OC)c5[nH]c(cc1n2)c(C)c5C(=O)OC)[C@@H](CCC(=O)OC)[C@@H]4C)c(C)c3C(C)OCCCS[C@@H]1O[C@H](CO)[C@@H](O)[C@H](O)[C@H]1O (stereo partly drawn) [G-Ce6, Methyl (7S,8S)-18-ethyl-5-(2-methoxy-2-oxoethyl)-7-(3-methoxy-3-oxopropyl)-2,8,12,17-tetramethyl-13-(1-(3-(((2S,3R,4S,5S,6R)-3,4,5-trihydroxy-6-(hydroxymethyl)tetrahydro-2H-pyran-2-yl)thio)propoxy)ethyl)-7H,8H-porphyrin-3-carboxylate] the “Cell viability compared with 0 J/cm^2 of light” value (SNP cells [1]; 1.6 μg/mL, 15 J/cm^2) was “significantly lower”, the “Cell viability compared with 0 J/cm^2 of light” value (SNP cells [1]; 8 μg/mL, 5 J/cm^2 and 15 J/cm^2) was “significantly lower” and the “Cell viability compared with 0 J/cm^2 of light” value (SNP cells [1]; 40 μg/mL, 1, 5, and 15 J/cm^2) was “significantly lower”. The “Cell death in the absence of laser irradiation” value (SNP cells [1]; <40 μg/mL G-Ce6, no laser irradiation) was “not observed”, the IC50 (SNP cells [1]; light dose 1 J/cm^2) was 33.4 µg/mL (≈ 37.4 µM) and the IC50 (SNP cells [1]; light dose 5 J/cm^2) was 10.4 µg/mL (≈ 11.6 µM). The IC50 (SNP cells [1]; light dose 15 J/cm^2) was 1.7 µg/mL (≈ 1.9 µM), the “Percentage of ROS (+) cells compared with control group” value (SNP cells [2]; 5 J/cm^2, p < 0.01) was “significantly higher” and the “Percentage of ROS (+) cells” value (SNP cells [2]; 15 J/cm^2) was “remarkably decreased”.

Reference: article PMC6562844, “A Basic Study of Photodynamic Therapy with Glucose-Conjugated Chlorin e6 Using Mammary Carcinoma Xenografts” (Cancers, 2019)
